From US20240109891A1, “NOVEL SUBSTITUTED TRICYCLIC AZA-HETEROCYCLES AS SOS1 INHIBITORS” (Viva Star Biosciences (Suzhou) Co., Ltd., priority 2021, published 2024)

Columns and labels:
[1] = target: T1, KRAS G12D and SOS1 proteins (Homo sapiens, UniProt Q07889); assay: KRAS-G12D/SOS1 binding assay (HTRF); conditions: Tag1-SOS1 / Tag2-KRAS G12D, 10 μM GTP
T1 construct: purchased Cisbio 63ADK000CB17PEG
T1 sequence (Q07889 1-1333): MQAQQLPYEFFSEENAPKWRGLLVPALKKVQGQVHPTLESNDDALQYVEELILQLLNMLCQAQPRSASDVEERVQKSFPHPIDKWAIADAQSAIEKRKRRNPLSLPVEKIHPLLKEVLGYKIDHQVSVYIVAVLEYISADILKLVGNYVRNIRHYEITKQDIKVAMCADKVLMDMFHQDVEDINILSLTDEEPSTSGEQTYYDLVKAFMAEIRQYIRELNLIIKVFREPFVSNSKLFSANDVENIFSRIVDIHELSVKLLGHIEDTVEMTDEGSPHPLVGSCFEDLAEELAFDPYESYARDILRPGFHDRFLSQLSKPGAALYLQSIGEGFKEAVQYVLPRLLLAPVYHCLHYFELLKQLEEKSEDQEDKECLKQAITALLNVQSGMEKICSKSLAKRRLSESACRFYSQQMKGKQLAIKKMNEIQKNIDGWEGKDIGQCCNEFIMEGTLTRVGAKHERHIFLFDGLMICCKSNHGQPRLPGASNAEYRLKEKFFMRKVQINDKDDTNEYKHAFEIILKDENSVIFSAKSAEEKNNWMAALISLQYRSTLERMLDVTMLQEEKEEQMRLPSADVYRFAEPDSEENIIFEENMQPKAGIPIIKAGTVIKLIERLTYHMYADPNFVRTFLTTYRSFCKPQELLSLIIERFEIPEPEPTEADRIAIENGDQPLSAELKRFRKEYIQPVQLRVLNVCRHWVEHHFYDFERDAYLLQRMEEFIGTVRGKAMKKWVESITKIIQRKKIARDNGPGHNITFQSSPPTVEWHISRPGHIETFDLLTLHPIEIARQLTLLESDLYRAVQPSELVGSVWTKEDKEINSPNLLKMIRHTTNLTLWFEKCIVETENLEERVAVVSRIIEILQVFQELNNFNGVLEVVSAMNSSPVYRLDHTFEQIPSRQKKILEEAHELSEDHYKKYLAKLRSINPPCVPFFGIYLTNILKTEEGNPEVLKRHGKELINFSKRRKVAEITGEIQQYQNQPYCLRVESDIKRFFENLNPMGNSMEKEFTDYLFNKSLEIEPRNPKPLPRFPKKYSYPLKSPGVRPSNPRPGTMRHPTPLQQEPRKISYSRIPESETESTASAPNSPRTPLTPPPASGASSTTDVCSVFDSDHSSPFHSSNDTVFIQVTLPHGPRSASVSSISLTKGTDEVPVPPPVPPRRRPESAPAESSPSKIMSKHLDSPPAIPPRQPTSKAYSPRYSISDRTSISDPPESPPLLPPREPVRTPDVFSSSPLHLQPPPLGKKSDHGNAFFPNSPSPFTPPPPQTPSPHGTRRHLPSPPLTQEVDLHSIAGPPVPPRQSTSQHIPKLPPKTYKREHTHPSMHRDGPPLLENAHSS

[2] = target: T2, KRAS-WT and SOS1 proteins (Homo sapiens, UniProt Q07889); assay: KRAS-WT/SOS1 binding assay (HTRF); conditions: Tag1-SOS1 / Tag2-KRAS-WT, 10 μM GTP, read-out: Activity Data in Kras: SOS1 Assay, Wild Type
T2 construct: purchased Cisbio 63ADK000CB15PEG
T2 sequence (Q07889 1-1333): T1 sequence (Q07889 1-1333)

Row | SMILES | IC50 [1] | IC50 [2]
1 | CC(=O)N1CCC(c2cc3c(N[C@H](C)c4cccc5c4CCC5(F)F)nc(C)nc3n3cnnc23)CC1 [Example 7, (R)-1-(4-(4-((1-(1,1-difluoro-2,3-dihydro-1H-inden-4-yl)ethyl)amino)-2-methyl-[1,2,4]triazolo[4′,3′:1,6]pyrido[2,3-d]pyrimidin-6-yl)piperidin-1-yl)ethanone] | < 100 nM | < 100 nM
2 | CNCc1ccccc1-c1ccc([C@@H](C)Nc2nc3ccnn3c3cc(=O)n(C4(C)CC4)cc23)s1 [Example 74, 8-{[(1R)-1-(5-{2-[(methylamino)methyl]phenyl}thiophen-2-yl)ethyl]amino}-11-(1-methylcyclopropyl)-2,3,7,11-tetraazatricyclo[7.4.0.0^{2,6}]trideca-1(13),3,5,7,9-pentaen-12-one] | < 100 nM | < 100 nM
3 | Cc1nc(N[C@H](C)c2cccc(C(F)(F)CO)c2)c2cc(N3CCC(O)C3)c3c(cnn3C)c2n1 (stereo partly drawn) [Example 42, 1-(4-{[(1R)-1-[3-(1,1-difluoro-2-hydroxyethyl)phenyl]ethyl]amino}-2,7-dimethyl-7H-pyrazolo[3,4-h]quinazolin-6-y)pyrrolidin-3-ol] | < 100 nM | < 100 nM
4 | COc1cc2c(cc1C1CCN(C(C)=O)CC1)c(N[C@H](C)c1cccc3c1CCC3(F)F)nc1ccnn12 [Example 52, (R)-1-(4-(5-((1-(1,1-difluoro-2,3-dihydro-1H-inden-4-yl)ethyl)amino)-8-methoxypyrazolo[1,5-a]quinazolin-7-yl)piperidin-1-yl)ethanone] | 100 to 500 nM | 100 to 500 nM
5 | Cc1nc(N[C@H](C)c2cccc(C(F)(F)CO)c2)c2cc(N3CC[C@H](O)C3)c3c(cnn3C)c2n1 [Example 43, (3S)-1-(4-{[(1R)-1-[3-(1,1-difluoro-2-hydroxyethyl)phenyl]ethyl]amino}-2,7-dimethyl-7H-pyrazolo[3,4-h]quinazolin-6-yl)pyrrolidin-3-ol] | < 100 nM | < 100 nM
6 | C[C@@H](Nc1nc2ccnn2c2cc(=O)n([C@H]3CCOC3)cc12)c1cc(N)cc(C(F)(F)F)c1 [Example 70, 5-(((R)-1-(3-amino-5-(trifluoromethyl)phenyl)ethyl)amino)-7-((S)-tetrahydrofuran-3-yl)pyrazolo[1,5-a]pyrido[3,4-e]pyrimidin-8(7H)-one] | < 100 nM | < 100 nM
7 | COc1cc2c(cc1O[C@H]1CCOC1)c(N[C@H](C)c1cc(N)cc(C(F)(F)F)c1)nc1ccnn12 [Example 55, N-[(1R)-1-[3-amino-5-(trifluoromethyl)phenyl]ethyl]-8-methoxy-7-[(3S)-oxolan-3-yloxy]pyrazolo[1,5-a]quinazolin-5-amine] | 100 to 500 nM | 100 to 500 nM
8 | C[C@@H](Nc1nc2ccnn2c2cc(=O)n(C3(C)CC3)cc12)c1cccc(C(C)(F)F)c1F [Example 64, (R)-5-((1-(3-(1,1-difluoroethyl)-2-fluorophenyl)ethyl)amino)-7-(1-methylcyclopropyl)pyrazolo[1,5-a]pyrido[3,4-e]pyrimidin-8(7H)-one] | < 100 nM | < 100 nM
9 | Cc1nc(N[C@H](C)c2cccc3c2CCC3(F)F)c2cc(-c3ccc(=O)n(C)c3)c3c(cnn3C)c2n1 [Example 25, (R)-5-(4-((1-(1,1-difluoro-2,3-dihydro-1H-inden-4-yl)ethyl)amino)-2,7-dimethyl-7H-pyrazolo[3,4-h]quinazolin-6-yl)-1-methylpyridin-2(1H)-one] | < 100 nM | < 100 nM
10 | C[C@@H](Nc1nc2ccnn2c2cc(=O)n(C3CC(F)(F)C3)cc12)c1cc(F)cc(C(F)(F)CO)c1 [Example 73, (R)-5-((1-(3-(1,1-difluoro-2-hydroxyethyl)-5-fluorophenyl)ethyl)amino)-7-(3,3-difluorocyclobutyl)pyrazolo[1,5-a]pyrido[3,4-e]pyrimidin-8(7H)-one] | < 100 nM | < 100 nM
11 | Cc1c([C@@H](C)Nc2nc3ccnn3c3cc(=O)n(C4(C)CC4)cc23)cccc1C(F)(F)F [Example 63, (R)-5-((1-(2-methyl-3-(trifluoromethyl)phenyl)ethyl)amino)-7-(1-methylcyclopropyl)pyrazolo[1,5-a]pyrido[3,4-e]pyrimidin-8(7H)-one] | < 100 nM | < 100 nM
12 | Cc1nc(N[C@H](C)c2cccc3c2CCC3(F)F)c2cc(O[C@H]3CCOC3)c3c(cnn3C)c2n1 [Example 36, N-((R)-1-(1,1-difluoro-2,3-dihydro-1H-inden-4-yl)ethyl)-2,7-dimethyl-6-(((S)-tetrahydrofuran-3-yl)oxy)-7H-pyrazolo[3,4-h]quinazolin-4-amine] | < 100 nM | < 100 nM
13 | C[C@@H](Nc1nc2ccnn2c2cc(=O)n(C3CC(F)(F)C3)cc12)c1cccc(C(F)(F)CO)c1 [Example 66, (R)-5-((1-(3-(1,1-difluoro-2-hydroxyethyl)phenyl)ethyl)amino)-7-(3,3-difluorocyclobutyl)pyrazolo[1,5-a]pyrido[3,4-e]pyrimidin-8(7H)-one] | < 100 nM | < 100 nM
14 | Cc1nc(N[C@H](C)c2cccc(C(F)(F)CO)c2)c2cc(O[C@H]3CCOC3)c3c(cnn3C)c2n1 [Example 38, 2-(3-((R)-1-((2,7-dimethyl-6-(((S)-tetrahydrofuran-3-yl)oxy)-7H-pyrazolo[3,4-h]quinazolin-4-yl)amino)ethyl)phenyl)-2,2-difluoroethan-1-ol] | < 100 nM | < 100 nM
15 | Cc1nc(N[C@H](C)c2cccc3c2CCC3(F)F)c2cc(C3CCN(S(C)(=O)=O)CC3)c3nncn3c2n1 [Example 8, (R)-N-(1-(1,1-difluoro-2,3-dihydro-1H-inden-4-yl)ethyl)-2-methyl-6-(1-(methylsulfonyl)piperidin-4-yl)-[1,2,4]triazolo[4′,3′:1,6]pyrido[2,3-d]pyrimidin-4-amine] | < 100 nM | < 100 nM
16 | Cc1nc(N[C@H](C)c2cccc(C(F)(F)CO)c2)c2cc(-c3ccc(=O)[nH]c3)c3c(cnn3C)c2n1 [Example 29, (R)-5-(4-((1-(3-(1,1-difluoro-2-hydroxyethyl)phenyl)ethyl)amino)-2,7-dimethyl-7H-pyrazolo[3,4-h]quinazolin-6-yl)pyridin-2(1H)-one] | < 100 nM | < 100 nM
17 | Cc1nc(N[C@H](C)c2cc(N)cc(C(F)(F)F)c2)c2cc(O[C@H]3CCOC3)c3nncn3c2n1 [Example 18, N-[(1R)-1-[3-amino-5-(trifluoromethyl)phenyl]ethyl]-12-methyl-7-(oxolan-3-yloxy)-2,4,5,11,13-pentaazatricyclo[7.4.0.0^{2,6}]trideca-1(9),3,5,7,10,12-hexaen-10-amine] | < 100 nM | < 100 nM
18 | COc1cc2c(cc1O[C@H]1CCOC1)c(N[C@H](C)c1cccc(C(F)(F)F)c1)nc1cncn12 [Example 56, 8-methoxy-7-(((S)-tetrahydrofuran-3-yl)oxy)-N—((R)-1-(3-(trifluoromethyl)phenyl)ethyl)imidazo[1,5-a]quinazolin-5-amine] | 500 to 5000 nM | 500 to 5000 nM
19 | Cc1nc(N[C@H](C)c2cccc(C(F)(F)F)c2)c2cc(O[C@H]3CCOC3)c3nncn3c2n1 [Example 17, 12-methyl-7-(oxolan-3-yloxy)-N-[(1R)-1-[3-(trifluoromethyl)phenyl]ethyl]-2,4,5,11,13-pentaazatricyclo[7.4.0.0^{2,6}]trideca-1(9),3,5,7,10,12-hexaen-10-amine] | 100 to 500 nM | 100 to 500 nM
